Results: ChEMBL document CHEMBL1949526, “Cyclic hydroxyamidines as amide isosteres: discovery of oxadiazolines and oxadiazines as potent and highly efficacious γ-secretase modulators in vivo” (J Med Chem, 2012)

What was measured:
Rattus norvegicus [1] = experiment: Antialzheimer activity in rat assessed as reduction in amyloid beta42 level in CSF at 3 mg/kg, po after 3 hrs; format: functional; set-up: scale not given: the % may be the effect or the level left
[2] = Volume of distribution at steady state in rat at 3 mg/kg, iv; format: ADME, organism-based; set-up: dose 3 mg/kg, route intravenous; conditions: in vivo, read-out: Vdss
[3] = Volume of distribution at steady state in dog at 3 mg/kg, iv; format: ADME, organism-based, Canis lupus familiaris; set-up: dose 3 mg/kg, route intravenous; conditions: in vivo, read-out: Vdss
Gamma-secretase [4] = experiment: Modulation of gamma-secretase-mediated cleavage of human APP Swedish and London mutation expressed in HEK293 cells assessed as inhibition of amyloid beta40 production after 5 hrs by sandwich immunoassay; format: cell-based
[5] = Cmax in dog at 10 mg/kg, po; format: ADME, organism-based, Canis lupus familiaris; set-up: dose 10 mg/kg, route oral; conditions: in vivo
[6] = Cmax in rat at 10 mg/kg, po; format: ADME, organism-based; set-up: dose 10 mg/kg, route oral; conditions: in vivo
[7] = Oral bioavailability in monkey at 10 mg/kg; format: ADME, organism-based, Macaca mulatta; conditions: rhesus monkey, in vivo
[8] = AUC in monkey at 10 mg/kg, po; format: ADME, organism-based, Macaca mulatta; set-up: dose 10 mg/kg, route oral; conditions: rhesus monkey, plasma
Canis familiaris [9] = organism: Canis familiaris; experiment: Cardiotoxicity in dog assessed as effect on electrocardiographic QTc interval at compound concentration required for pharmacological effect; format: toxicity, organism-based, Canis lupus familiaris; conditions: in vivo
[10] = Half life in rat at 3 mg/kg, iv; format: ADME, organism-based; set-up: dose 3 mg/kg, route intravenous; conditions: in vivo
Canis familiaris [11] = experiment: Oral bioavailability in dog at 10 mg/kg; format: ADME, organism-based, Canis lupus familiaris; conditions: in vivo
[12] = Drug level in rat brain at 10 mg/kg, po after 3 hrs; format: ADME, organism-based; set-up: dose 10 mg/kg, route oral; conditions: read-out: Drug uptake
[13] = biological target: Voltage-gated inwardly rectifying potassium channel KCNH2 (Homo sapiens, UniProt Q12809); experiment: Inhibition of human ERG by cell based voltage clamp assay
[14] = Half life in monkey at 3 mg/kg, iv; format: ADME, organism-based, Macaca mulatta; set-up: dose 3 mg/kg, route intravenous; conditions: rhesus monkey, in vivo
Gamma-secretase [15] = experiment: Modulation of gamma-secretase-mediated cleavage of human APP Swedish and London mutation expressed in HEK293 cells assessed as reduction of total amyloid beta level after 5 hrs by sandwich immunoassay; format: cell-based
Rattus norvegicus [16] = experiment: Antialzheimer activity in rat assessed as reduction in amyloid beta42 level in CSF at 10 mg/kg, po after 3 hrs; format: functional; set-up: scale not given: the % may be the effect or the level left
Rattus norvegicus [17] = experiment: AUC in rat at 10 mg/kg, po; format: ADME, organism-based, Plasma; set-up: dose 10 mg/kg, route oral; conditions: in vivo
[18] = Permeability from apical to basolateral side of human Caco2 cells; format: ADME, cell-based; conditions: Caco-2, read-out: permeability
[19] = Dissociation constant, pKa of the compound; format: physicochemical
Canis familiaris [20] = experiment: AUC in dog at 10 mg/kg, po; format: ADME, organism-based, Canis lupus familiaris, Plasma; set-up: dose 10 mg/kg, route oral; conditions: in vivo
[21] = Drug level in rat brain at 3 mg/kg, po after 3 hrs; format: ADME, organism-based; set-up: dose 3 mg/kg, route oral; conditions: read-out: Drug uptake
Gamma-secretase [22] = experiment: Modulation of gamma-secretase-mediated cleavage of human APP Swedish and London mutation expressed in HEK293 cells assessed as inhibition of amyloid beta42 production after 5 hrs by sandwich immunoassay; format: cell-based
Rattus norvegicus [23] = experiment: Antialzheimer activity in po dosed rat assessed as reduction in amyloid beta42 level in CSF after 3 hrs; format: functional, organism-based
[24] = biological target: Gamma-secretase (Homo sapiens) (UniProt Q96BI3+Q9NZ42+Q8WW43+P49768+Q92542+P49810); experiment: Modulation of gamma-secretase-mediated cleavage of human APP Swedish and London mutation expressed in HEK293 cells assessed as reduction of total amyloid beta/amyloid beta42 ratio after 5 hrs by sandwich immunoassay; format: cell-based
[25] = Half life in dog at 3 mg/kg, iv; format: ADME, organism-based, Canis lupus familiaris; set-up: dose 3 mg/kg, route intravenous; conditions: in vivo
[26] = biological target: T1, Nuclear receptor subfamily 1 group I member 2 (Homo sapiens, UniProt O75469); experiment: Induction of human PXR
T1 sequence (O75469 whole entry): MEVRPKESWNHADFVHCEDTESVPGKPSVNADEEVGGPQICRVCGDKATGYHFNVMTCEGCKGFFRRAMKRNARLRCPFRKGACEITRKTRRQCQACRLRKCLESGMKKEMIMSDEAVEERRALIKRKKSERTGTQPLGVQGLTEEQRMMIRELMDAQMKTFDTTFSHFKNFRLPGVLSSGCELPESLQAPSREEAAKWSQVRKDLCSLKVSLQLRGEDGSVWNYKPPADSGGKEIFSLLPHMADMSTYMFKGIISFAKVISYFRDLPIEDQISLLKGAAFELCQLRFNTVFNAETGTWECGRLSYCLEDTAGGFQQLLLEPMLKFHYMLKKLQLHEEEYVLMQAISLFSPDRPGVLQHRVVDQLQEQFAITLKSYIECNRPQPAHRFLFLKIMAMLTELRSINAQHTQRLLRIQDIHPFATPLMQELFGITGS

Homo sapiens = organism: Homo sapiens; experiment: Cardiotoxicity in human assessed as QT prolongation; format: toxicity, organism-based; conditions: in vivo
Cytochrome P450 2D6 = Cytochrome P450 2D6 (Homo sapiens, UniProt P10635); experiment: Inhibition of human CYP2D6; format: ADME
Rattus norvegicus [27] = experiment: Oral bioavailability in rat at 10 mg/kg; format: ADME, organism-based; conditions: in vivo
[28] = Clearance in monkey at 3 mg/kg, iv; format: ADME, organism-based, Macaca mulatta; set-up: dose 3 mg/kg, route intravenous; conditions: rhesus monkey, in vivo
Cytochrome P450 2C9 = Cytochrome P450 2C9 (Homo sapiens, UniProt P11712); experiment: Inhibition of human CYP2C9; format: ADME
Cytochrome P450 3A4 = Cytochrome P450 3A4 (Homo sapiens, UniProt P08684); experiment: Inhibition of human CYP3A4; format: ADME
[29] = Volume of distribution at steady state in monkey at 3 mg/kg, iv; format: ADME, organism-based, Macaca mulatta; set-up: dose 3 mg/kg, route intravenous; conditions: rhesus monkey, in vivo, read-out: Vdss
[30] = Cmax in monkey at 10 mg/kg, po; format: ADME, organism-based, Macaca mulatta; set-up: dose 10 mg/kg, route oral; conditions: rhesus monkey, in vivo
[31] = Efflux ratio of permeability from basolateral to apical side over apical to basolateral side in human Caco2 cells; format: ADME, cell-based; conditions: Caco-2

Cytochrome P450 3A4, sequence (P08684 whole entry): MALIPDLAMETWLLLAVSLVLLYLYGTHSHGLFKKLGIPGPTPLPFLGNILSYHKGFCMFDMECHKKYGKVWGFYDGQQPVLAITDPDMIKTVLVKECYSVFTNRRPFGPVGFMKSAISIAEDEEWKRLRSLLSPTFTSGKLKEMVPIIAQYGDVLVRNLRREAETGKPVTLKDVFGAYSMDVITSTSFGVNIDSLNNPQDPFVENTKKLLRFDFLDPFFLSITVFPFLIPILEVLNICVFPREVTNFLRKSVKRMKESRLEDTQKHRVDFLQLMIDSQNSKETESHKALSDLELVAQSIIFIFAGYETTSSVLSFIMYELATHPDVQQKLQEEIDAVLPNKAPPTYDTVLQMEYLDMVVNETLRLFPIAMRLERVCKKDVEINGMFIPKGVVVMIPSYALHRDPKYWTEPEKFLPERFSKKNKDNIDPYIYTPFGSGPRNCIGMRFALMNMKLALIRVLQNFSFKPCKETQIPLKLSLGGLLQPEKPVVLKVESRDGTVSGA
Cytochrome P450 2C9, sequence (P11712 whole entry): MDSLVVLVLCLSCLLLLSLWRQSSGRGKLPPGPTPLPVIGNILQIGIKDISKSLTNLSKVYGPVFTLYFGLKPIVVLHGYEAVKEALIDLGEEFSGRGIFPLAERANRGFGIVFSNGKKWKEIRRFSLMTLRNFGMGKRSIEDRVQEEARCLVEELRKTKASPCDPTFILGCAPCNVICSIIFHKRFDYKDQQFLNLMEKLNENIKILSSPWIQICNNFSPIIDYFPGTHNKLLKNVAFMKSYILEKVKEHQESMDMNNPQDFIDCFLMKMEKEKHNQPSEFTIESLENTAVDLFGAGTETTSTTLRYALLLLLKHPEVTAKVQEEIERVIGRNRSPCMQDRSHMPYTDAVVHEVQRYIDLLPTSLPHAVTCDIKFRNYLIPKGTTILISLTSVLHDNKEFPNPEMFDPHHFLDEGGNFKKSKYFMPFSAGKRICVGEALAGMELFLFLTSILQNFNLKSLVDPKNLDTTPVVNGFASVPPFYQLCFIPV
Cytochrome P450 2D6, sequence (P10635 whole entry): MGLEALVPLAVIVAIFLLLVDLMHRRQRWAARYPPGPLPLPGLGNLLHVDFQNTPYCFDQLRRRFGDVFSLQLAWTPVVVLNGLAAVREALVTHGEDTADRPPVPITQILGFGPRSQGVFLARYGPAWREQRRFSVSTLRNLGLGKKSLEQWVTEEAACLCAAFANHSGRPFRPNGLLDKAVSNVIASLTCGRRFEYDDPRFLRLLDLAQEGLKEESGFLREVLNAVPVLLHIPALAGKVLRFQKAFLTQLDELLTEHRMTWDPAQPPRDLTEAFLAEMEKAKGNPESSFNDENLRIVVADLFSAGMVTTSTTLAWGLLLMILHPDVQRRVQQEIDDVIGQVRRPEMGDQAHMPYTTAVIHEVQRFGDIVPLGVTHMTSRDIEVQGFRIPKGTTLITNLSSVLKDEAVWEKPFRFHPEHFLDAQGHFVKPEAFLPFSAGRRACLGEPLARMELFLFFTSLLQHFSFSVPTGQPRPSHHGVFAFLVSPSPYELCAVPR
Voltage-gated inwardly rectifying potassium channel KCNH2, sequence (Q12809 whole entry): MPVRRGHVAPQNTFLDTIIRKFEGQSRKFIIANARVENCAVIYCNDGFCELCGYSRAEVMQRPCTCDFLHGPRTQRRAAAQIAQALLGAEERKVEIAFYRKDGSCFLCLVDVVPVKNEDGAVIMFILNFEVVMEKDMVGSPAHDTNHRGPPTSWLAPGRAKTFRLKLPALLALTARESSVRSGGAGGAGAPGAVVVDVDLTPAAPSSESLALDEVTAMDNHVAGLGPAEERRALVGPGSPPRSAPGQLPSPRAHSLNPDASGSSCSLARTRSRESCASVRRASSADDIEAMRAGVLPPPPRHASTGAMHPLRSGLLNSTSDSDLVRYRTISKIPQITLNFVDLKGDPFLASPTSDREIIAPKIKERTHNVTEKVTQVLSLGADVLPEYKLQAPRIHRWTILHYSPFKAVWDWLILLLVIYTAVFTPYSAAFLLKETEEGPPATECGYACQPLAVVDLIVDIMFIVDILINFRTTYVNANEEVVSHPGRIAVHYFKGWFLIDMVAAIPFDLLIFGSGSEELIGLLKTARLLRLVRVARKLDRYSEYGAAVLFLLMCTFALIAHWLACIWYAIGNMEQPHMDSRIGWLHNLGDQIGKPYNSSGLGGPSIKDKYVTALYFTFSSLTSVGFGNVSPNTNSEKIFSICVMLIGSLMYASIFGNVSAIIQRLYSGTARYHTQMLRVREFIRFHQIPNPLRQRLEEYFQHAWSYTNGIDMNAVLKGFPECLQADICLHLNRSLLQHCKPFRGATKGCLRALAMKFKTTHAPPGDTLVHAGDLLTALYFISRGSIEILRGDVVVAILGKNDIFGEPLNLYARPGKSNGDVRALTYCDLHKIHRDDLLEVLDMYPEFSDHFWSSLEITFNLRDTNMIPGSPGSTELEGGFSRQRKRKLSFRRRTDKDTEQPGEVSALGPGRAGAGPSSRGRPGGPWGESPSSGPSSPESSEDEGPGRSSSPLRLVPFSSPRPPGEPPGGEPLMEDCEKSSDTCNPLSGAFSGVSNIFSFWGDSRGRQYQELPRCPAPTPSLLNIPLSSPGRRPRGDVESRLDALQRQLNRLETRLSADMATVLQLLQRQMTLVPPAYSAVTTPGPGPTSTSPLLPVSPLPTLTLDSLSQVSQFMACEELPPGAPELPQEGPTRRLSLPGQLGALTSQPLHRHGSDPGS

## COc1cc(/C=C2\CCCN3C2=NOC3(C)c2ccc(F)cc2)ccc1-n1cnc(C)c1 (single isomer, unassigned)
Rattus norvegicus [1]
  Activity: 30%
[2]
  Vd: 1.6 L/kg
[3]
  Vd: 2.2 L/kg
Gamma-secretase [4]
  IC50: 267 nM
[5]
  Cmax: 5.3 µM
[6]
  Cmax: 4.9 µM
[7]
  bioavailability: 57%
[8]
  AUC: 30 µM·h
Canis familiaris [9]
  Activity: Non-toxic
[10]
  half-life: 150 min
Canis familiaris [11]
  F: 69%
[12]
  concentration at 3 h: 5 µM
[13]
  IC50: 740 nM
[14]
  half-life: 120 min
Gamma-secretase [15]
  IC50: 13.7 µM
Rattus norvegicus [16]
  Activity: 51%
Rattus norvegicus [17]
  AUC: 19 µM·h
[18]
  Papp A→B: 34.6 ×10⁻⁶ cm/s
[19]
  pKa: 6.7
Canis familiaris [20]
  AUC: 27 µM·h
[21]
  concentration at 3 h: 800 nM
Gamma-secretase [22]
  IC50: 58 nM
Rattus norvegicus [23]
  Activity: Dose-dependent effect
[24]
  Ratio IC50: 237
[25]
  half-life: 102 min
[26]
  Activity: Not Active
Homo sapiens
  Activity: Toxic
Cytochrome P450 2D6
  inhibition (INH): Not Active
Rattus norvegicus [27]
  F: 78%
[28]
  clearance: 7.3 mL/min/kg
Cytochrome P450 2C9
  inhibition (INH): Not Active
Cytochrome P450 3A4
  inhibition (INH): Not Active
[29]
  Vd: 1 L/kg
[30]
  Cmax: 5.6 µM
[31]
  efflux ratio: 0.6
